The numbers were not newly measured in patent US20250134147A1, “METHODS AND COMPOSITIONS FOR IMPROVED SUGAR-LIKE TASTE” (ALMENDRA (THAILAND) LTD., priority 2021, published 2025), which cites them from elsewhere.

The conditions of series [1]: for sweetness potency, times higher than sucrose: relative to sucrose, Tanaka 1987 / Phillips 1989; for sweetness potency, times more potent than sucrose: sensory evaluations, Crammer and Ikan 1986.
The conditions of series [2]: comparison among steviol glycosides.
The conditions of series [3]: Kinghorn 2002.

Like-named read-outs stand apart in the source and are kept apart here.

Consider `C=C1C[C@@]23CC[C@H]4[C@@](C)(CCC[C@@]4(C)C(=O)O[C@@H]4O[C@H](CO)[C@@H](O)[C@H](O)[C@H]4O)[C@@H]2CC[C@]1(O[C@@H]1O[C@H](CO)[C@@H](O)[C@H](O)[C@H]1O[C@@H]1O[C@H](CO)[C@@H](O)[C@H](O)[C@H]1O)C3` [Stevioside], for which the “sweetness potency, times higher than sucrose” value in series [1] is given as 110-270 times.

Regarding `C=C1C[C@@]23CC[C@H]4[C@@](C)(CCC[C@@]4(C)C(=O)O[C@@H]4O[C@H](CO)[C@@H](O)[C@H](O)[C@H]4O)[C@@H]2CC[C@]1(O[C@@H]1O[C@H](CO)[C@@H](O)[C@H](O)[C@H]1O[C@@H]1O[C@@H](C)[C@H](O)[C@@H](O)[C@H]1O)C3` [Dulcoside A], in series [1], the “sweetness potency, times higher than sucrose” value is reported as 30 times. In the case of `C=C1C[C@@]23CC[C@H]4[C@@](C)(CCC[C@@]4(C)C(=O)O[C@@H]4O[C@H](CO)[C@@H](O)[C@H](O)[C@H]4O[C@@H]4O[C@H](CO)[C@@H](O)[C@H](O)[C@H]4O)[C@@H]2CC[C@]1(O[C@@H]1O[C@H](CO)[C@@H](O)[C@H](O[C@@H]2O[C@H](CO)[C@@H](O)[C@H](O)[C@H]2O)[C@H]1O[C@@H]1O[C@H](CO)[C@@H](O)[C@H](O)[C@H]1O)C3` [Rebaudioside D], the “taste quality / sensory attributes” value in series [2] is on record as “very desirable taste profile”. Consider `C=C1C[C@@]23CC[C@H]4[C@@](C)(CCC[C@@]4(C)C(=O)O[C@@H]4O[C@H](CO)[C@@H](O)[C@H](O)[C@H]4O)[C@@H]2CC[C@]1(O[C@@H]1O[C@H](CO)[C@@H](O)[C@H](O[C@@H]2O[C@H](CO)[C@@H](O)[C@H](O)[C@H]2O)[C@H]1O[C@@H]1O[C@H](CO)[C@@H](O)[C@H](O)[C@H]1O)C3` [Rebaudioside A, (3R,4S,5S,6R)-3,4,5-trihydroxy-6-(hydroxymethyl)tetrahydro-2H-pyran-2-yl(4R,4αS,11αR,11βS)-10-(((2R,3R,5R,6R)-5-hydroxy-6-(hydroxymethyl)-3,4-bis(((2S,3R,4S,5S,6R)-3,4,5-trihydroxy-6-(hydroxymethyl)tetrahydro-2H-pyran-2-yl)oxy)tetrahydro-2H-pyran-2-yl)oxy)-4,11β-dimethyl-8-methylenetetradecahydro-6α,9-methanocyclohepta[a]naphthalene-4-carboxylate], for which, in series [1], the “sweetness potency, times more potent than sucrose” value was 350-450 times. Also, the “taste quality / sensory attributes” value in series [2] is “the least astringent, the least bitter, and the least persistent aftertaste”; in series [2] (listed as rebaudioside A), “clearly surpasses stevioside and rebaudioside B”.

As for `C=C1C[C@@]23CC[C@H]4[C@@](C)(CCC[C@@]4(C)C(=O)O)[C@@H]2CC[C@]1(O[C@@H]1O[C@H](CO)[C@@H](O)[C@H](O[C@@H]2O[C@H](CO)[C@@H](O)[C@H](O)[C@H]2O)[C@H]1O[C@@H]1O[C@H](CO)[C@@H](O)[C@H](O)[C@H]1O)C3` [Rebaudioside B, (4R,4αS,6αR,9S,11αR,11βS)-9-(((2S,3R,5R,6R)-5-hydroxy-6-(hydroxymethyl)-4-(((2S,3R,4S,5S,6R)-3,4,5-trihydroxy-6-(hydroxymethyl)tetrahydro-2H-pyran-2-yl)oxy)-3-(((3R,4S,5S,6R)-3,4,5-trihydroxy-6-(hydroxymethyl)tetrahydro-2H-pyran-2-yl)oxy)tetrahydro-2H-pyran-2-yl)oxy)-4,11β-dimethyl-8-methylenetetradecahydro-6α,9-methanocyclohepta[a]naphthalene-4-carboxylic acid], in series [1], the “sweetness potency, times more potent than sucrose” value was 300-350 times. The water solubility result in series [3] was “about 0.1%”.

Take `C=C1C[C@@]23CC[C@H]4[C@@](C)(CCC[C@@]4(C)C(=O)O)[C@@H]2CC[C@]1(O[C@@H]1O[C@H](CO)[C@@H](O)[C@H](O)[C@H]1O[C@@H]1O[C@H](CO)[C@@H](O)[C@H](O)[C@H]1O)C3` [Steviolbioside]: in series [2], the “taste quality / sensory attributes” value is “significantly inferior to that of stevioside”. Consider `C=C1C[C@@]23CC[C@H]4[C@@](C)(CCC[C@@]4(C)C(=O)O[C@@H]4O[C@H](CO)[C@@H](O)[C@H](O)[C@H]4O)[C@@H]2CC[C@]1(O[C@@H]1O[C@H](CO)[C@@H](O)[C@H](O)[C@H]1O)C3` [rubusoside], for which, in series [2], the “taste quality / sensory attributes” value is on record as “significantly inferior to that of stevioside”. Regarding `C=C1C[C@@]23CCC4[C@@](C)(CCC[C@@]4(C)C(=O)OC4O[C@H](CO)[C@@H](O)[C@H](O)[C@H]4O)C2CC[C@]1(O[C@@H]1O[C@H](CO)[C@@H](O)[C@H](O[C@@H]2O[C@H](CO)[C@@H](O)[C@H](O)[C@H]2O)[C@H]1O[C@H]1O[C@H](C)[C@@H](O)[C@H](O)[C@@H]1O)C3` (some centres unmarked) [Rebaudioside C], in series [1], the “sweetness potency, times higher than sucrose” value was 40-60 times.
